Laboratory results reported in patent publication US9663523B2, “BET protein-inhibiting 5-aryltriazoleazepines” (BAYER PHARMA AKTIENGESELLSCHAFT, priority 2012, dated 2017).
pIC50: −log10 of the molar value.

How the values were obtained:
[1] = target: BRD4(1) (amino acids 44-168) (Homo sapiens (Human), UniProt O60885); assay: BRD4 binding strength, TR-FRET (HTRF) assay of BRD4(1) / acetylated histone H4 peptide interaction; details: inhibition of BRD4(1)/Ac-H4 peptide interaction
Text: To assess the BRD4 binding strength of the compounds according to the invention, the ability thereof to inhibit the interaction between BRD4 and acetylated histone H4 in a dose-dependent manner was quantified. For this purpose, a time-resolved fluorescence resonance energy transfer (TR-FRET) assay was used, which measures the binding between N-terminally His6-tagged BRD4(1) (amino acids 44-168) and a synthetic acetylated histone H4 (Ac-H4) peptide with sequence […]-biotin. The recombinant BRD4 protein produced in-house according to Filippakopoulos et al., Cell, 2012, 149:214-231 was expressed in E. coli and purified by means of (Ni-NTA) affinity and (Sephadex G-75) size exclusion chromatography. The Ac-H4 peptide can be purchased, for example, from Biosyntan (Berlin, Germany). […] For this purpose, 100-fold concentrated solutions in DMSO were prepared by serial dilutions (1:3.4) of a 2 mM stock solution into a clear, 384-well microtitre plate (Greiner Bio-One, Frickenhausen, Germany). From this, 50 nl were transferred into a black test plate (Greiner Bio-One, Frickenhausen, Germany). […] This was followed by a 10-minute incubation step at 22° C. for the pre-equilibration of putative complexes between BRD4 and the substances. Subsequently, 3 μl of a solution of 1.67 times the concentration (in assay buffer) consisting of Ac-H4 peptide (83.5 nM) and TR-FRET detection reagents [16.7 nM anti-6His-XL665 and 3.34 nM streptavidin cryptate (both from Cisbio Bioassays, Codolet, France), and 668 mM potassium fluoride (KF)] were added. The mixture was then incubated in the dark at 22° C. for one hour and then at 4° C. overnight. The formation of BRD4/Ac-H4 complexes was determined by the measurement of the resonance energy transfer from the streptavidin-Eu cryptate to the anti-6His-XL665 antibody present in the reaction. […] The ratio of the emissions at 665 nm and at 622 nm was taken as an indicator of the amount of BRD4/Ac-H4 complexes formed.

MOLM-13 cells = assay: Cell proliferation (alamarBlue), MOLM-13; format: cell-based; details: Homo sapiens, acute myeloid leukaemia cell line, 96 hours incubation
Experimental: (§1) The ability of the compounds according to the invention to inhibit the proliferation of various cell lines was determined.
(§2) Cell viability was determined by means of the alamarBlue® reagent (Invitrogen). The cells were sown at different densities (MOLM-13, LAPC-4, MOLP-8 and MDA-MB-231: 4000 cells/well; B16F10: 400 cells/well) in 100 μl of growth medium on 96-well microtitre plates. After overnight incubation at 37° C., the fluorescence values (CI values) were determined. The plates were then treated with various substance dilutions and incubated at 37° C. for 96 hours (MOLM-13, MDA-MB-231 and B16F10 cells), 120 hours (MOLP-8 cells) or 168 hours (LAPC-4 cells). Subsequently, the fluorescence values were determined (CO values). For the data analysis, the CI values were subtracted from the CO values and the results were compared between cells which had been treated with various dilutions of the substance or only with buffer solution.
(§3) The compounds according to the invention were tested in the cell lines in Table 2, which represent the indications specified by way of example:
(§4) The indications corresponding to the different cell lines can be found in Table 2.

B16F10 cells = assay: Cell proliferation (alamarBlue), B16F10; format: cell-based; details: Mus musculus, B16-F10; melanoma cell line, 96 hours incubation
Experimental: as §1, §2, §3, §4

LAPC-4 cells = assay: Cell proliferation (alamarBlue), LAPC-4; format: cell-based; details: Homo sapiens, LAPC4; prostate carcinoma (androgen receptor-positive) cell line, 168 hours incubation
Experimental: as §1
as §2, with “values).” for “values). For the data analysis, the CI values were subtracted from the CO values and the results were compared between cells which had been treated with various dilutions of the substance or only with buffer solution.”
as §3, §4

MOLP-8 cells = assay: Cell proliferation (alamarBlue), MOLP-8; format: cell-based; details: Homo sapiens, multiple myeloma cell line, 120 hours incubation
Experimental: as §1
as §2, with “values).” for “values). For the data analysis, the CI values were subtracted from the CO values and the results were compared between cells which had been treated with various dilutions of the substance or only with buffer solution.”
as §3, §4

pIC50 [1]	pIC50 (MOLM-13 cells)	pIC50 (B16F10 cells)	SMILES	pIC50 (LAPC-4 cells)	pIC50 (MOLP-8 cells)
7.30	7.00	7.22	Cc1nnc2n1-c1ccccc1C(c1ccc(Cl)cc1)=CC2Cc1nnc(-c2cccnc2)o1 (stereo in doubt) [Example 45, (−)-(4R)-6-(4-chlorophenyl)-1-methyl-4-{[5-(pyridin-3-yl)-1,3,4-oxadiazol-2-yl]methyl}-4H-[1,2,4]triazolo[4,3-a][1]benzazepine]	–	–
7.40	6.49	–	Cc1nnc(CC2C=C(c3ccc(Cl)cc3)c3ccccc3-n3c(C)nnc32)o1 (centres unmarked) [Example 39, 6-(4-chlorophenyl)-1-methyl-4-[(5-methyl-1,3,4-oxadiazol-2-yl)methyl]-4H-[1,2,4]triazolo[4,3-a][1]benzazepine]	–	–
7.10	6.57	–	Cc1nc(CC2C=C(c3ccc(Cl)cc3)c3ccccc3-n3c(C)nnc32)no1 (centres unmarked) [Example 46, 6-(4-chlorophenyl)-1-methyl-4-[(5-methyl-1,2,4-oxadiazol-3-yl)methyl]-4H-[1,2,4]triazolo[4,3-a][1]benzazepine]	–	6.85
6.52	5.38	5.02	Cc1nnc2n1-c1ccccc1C(c1cccc(Cl)c1)=CC2CC(=O)N1CC2(COC2)C1 (stereo in doubt) [Example 11, (−)-2-[(4R)-6-(3-chlorophenyl)-1-methyl-4H-[1,2,4]triazolo[4,3-a][1]benzazepin-4-yl]-1-(2-oxa-6-azaspiro[3.3]hept-6-yl)ethanone]	5.10	–
–	6.37	6.37	Cc1nnc2n1-c1ccccc1C(c1ccc(Cl)cc1)=CC2CC(=O)OC(C)(C)C (stereo in doubt) [Example 9, tert-butyl (−)-[(4R)-6-(4-chlorophenyl)-1-methyl-4H-[1,2,4]triazolo[4,3-a][1]benzazepin-4-yl]acetate]	6.51	–
–	5.77	5.66	Cc1nnc2n1-c1ccc(OC(F)(F)F)cc1C(c1ccc(Cl)cc1)=CC2CC(=O)OC(C)(C)C (centres unmarked) [Example 49, tert-butyl [6-(4-chlorophenyl)-1-methyl-8-(trifluoromethoxy)-4H-[1,2,4]triazolo[4,3-a][1]benzazepin-4-yl]acetate]	–	5.72
7.00	6.14	–	Cc1nnc(CC2C=C(c3ccc(Cl)cc3)c3ccccc3-n3c(C)nnc32)s1 (centres unmarked) [Example 41, 6-(4-chlorophenyl)-1-methyl-4-[(5-methyl-1,3,4-thiadiazol-2-yl)methyl]-4H-[1,2,4]triazolo[4,3-a][1]benzazepine]	–	6.39
6.47	5.86	–	Cc1nnc(CC2C=C(c3ccc(Cl)cc3)c3cc(-c4c(C)noc4C)ccc3-n3c(C)nnc32)o1 (centres unmarked) [Example 48, 6-(4-chlorophenyl)-8-(3,5-dimethyl-1,2-oxazol-4-yl)-1-methyl-4-[(5-methyl-1,3,4-oxadiazol-2-yl)methyl]-4H-[1,2,4]triazolo[4,3-a][1]benzazepine]	–	5.79
6.89	6.43	–	Cc1nnc2n1-c1ccccc1C(c1ccc(Cl)cc1)=CC2Cc1nnc(C2CC2)o1 (centres unmarked) [Example 43, 6-(4-chlorophenyl)-4-[(5-cyclopropyl-1,3,4-oxadiazol-2-yl)methyl]-1-methyl-4H-[1,2,4]triazolo[4,3-a][1]benzazepine]	–	6.68
6.66	6.20	6.13	Cc1nnc2n1-c1ccccc1C(c1ccc(Cl)cc1)=CC2CC(=O)N1CC2(COC2)C1 (centres unmarked) [Example 3, 2-[6-(4-chlorophenyl)-1-methyl-4H-[1,2,4]triazolo[4,3-a][1]benzazepin-4-yl]-1-(2-oxa-6-azaspiro[3.3]hept-6-yl)ethanone]	6.33	–
6.74	6.48	6.52	CCOC(=O)CC1C=C(c2ccc(Cl)cc2)c2ccccc2-n2c(C)nnc21 (centres unmarked) [Example 1, ethyl [6-(4-chlorophenyl)-1-methyl-4H-[1,2,4]triazolo[4,3-a][1]benzazepin-4-yl]acetate]	6.59	–
7.52	6.92	7.00	CCOC(=O)CC1C=C(c2ccc(Cl)cc2)c2ccccc2-n2c(C)nnc21 (stereo in doubt) [Example 2, ethyl (−)-(4R)-[6-(4-chlorophenyl)-1-methyl-4H-[1,2,4]triazolo[4,3-a][1]benzazepin-4-yl]acetate]	7.10	–
7.05	6.38	–	Cc1nnc2n1-c1ccccc1C(c1ccc(Cl)cc1)=CC2Cc1nnc(-c2cccnc2)o1 (centres unmarked) [Example 44, 6-(4-chlorophenyl)-1-methyl-4-{[5-(pyridin-3-yl)-1,3,4-oxadiazol-2-yl]methyl}-4H-[1,2,4]triazolo[4,3-a][1]benzazepine]	–	6.66
6.64	6.14	6.11	CCOC(=O)CC1C=C(c2cccc(Cl)c2)c2ccccc2-n2c(C)nnc21 (centres unmarked) [Example 7, ethyl [6-(3-chlorophenyl)-1-methyl-4H-[1,2,4]triazolo[4,3-a][1]benzazepin-4-yl]acetate]	6.12	–
7.30	6.82	–	COc1ccc2c(c1)C(c1ccc(Cl)cc1)=CC(Cc1nnc(C)o1)c1nnc(C)n1-2 (centres unmarked) [Example 47, 6-(4-chlorophenyl)-8-methoxy-1-methyl-4-[(5-methyl-1,3,4-oxadiazol-2-yl)methyl]-4H-[1,2,4]triazolo[4,3-a][1]benzazepine]	–	7.05
7.05	6.44	–	Cc1noc(CC2C=C(c3ccc(Cl)cc3)c3ccccc3-n3c(C)nnc32)n1 (centres unmarked) [Example 34, 6-(4-chlorophenyl)-1-methyl-4-[(3-methyl-1,2,4-oxadiazol-5-yl)methyl]-4H-[1,2,4]triazolo[4,3-a][1]benzazepine]	–	–
7.40	6.77	–	CC(=O)NNC(=O)CC1C=C(c2ccc(Cl)cc2)c2ccccc2-n2c(C)nnc21 (stereo in doubt) [Example 40, N′-acetyl-2-[(4R)-6-(4-chlorophenyl)-1-methyl-4H-[1,2,4]triazolo[4,3-a][1]benzazepin-4-yl]acetohydrazide]	–	7.10
–	6.41	6.24	Cc1nnc2n1-c1ccc(OC(F)(F)F)cc1C(c1ccc(Cl)cc1)=C[C@H]2CC(=O)N1CC2(COC2)C1 [Example 51]	–	6.44

SMILES	pIC50 [1]	pIC50 (MOLM-13 cells)	pIC50 (B16F10 cells)	pIC50 (LAPC-4 cells)	pIC50 (MOLP-8 cells)
Cc1nnc2n1-c1ccccc1C(c1ccc(Cl)cc1)=CC2CC(=O)N1C2CCC1CC2 (centres unmarked) [Example 5, 1-(7-azabicyclo[2.2.1]hept-7-yl)-2-[6-(4-chlorophenyl)-1-methyl-4H-[1,2,4]triazolo[4,3-a][1]benzazepin-4-yl]ethanone]	5.85	5.95	6.06	6.21	–
Cc1nnc2n1-c1ccccc1C(c1ccc(Cl)cc1)=CC2CC(=O)N1C2CCC1CC2 (stereo in doubt) [Example 6, (−)-1 (7-azabicyclo[2.2.1]hept-7-yl)-2-[(4R)-6-(4-chlorophenyl)-1-methyl-4H-[1,2,4]triazolo[4,3-a][1]benzazepin-4-yl]ethanone]	6.22	6.17	5.99	5.97	–
